pIC50: −log10 of the molar value. Several values for one entry are separate records, joined by “and”; a condition that tells them apart may be missing. Equal entries are not always repeated.

From PubChem BioAssay AID1963846 (Molecular Pharmacology Branch, DTP, NCI, 2024) come the findings set out here.

For the experiment, the system named is 454973-116-R2-J3-PDC complex spheroid viability. The experiment is described as follows: Anticancer human tumor 454973-116-R2-J3-PDC patient-derived pancreatic carcinoma cell line growth inhibition [POLQ]. The note with it: for viability, T/C: stronger effect = lower value. As for the experimental part: Multicellular complex tumor spheroid response to Polymerase (POL) inhibitors (novobiocin, ART-558, RP6685) in combination with a variety of drugs and investigational agents in selected tumor cell lines
The POL inhibitors (novobiocin, ART-558, and RP6685) were evaluated both individually and in combination with standard of care and investigational anticancer small molecules within a complex spheroid model of solid tumors. . Complex spheroids include a stromal component modeled by human endothelial cells (HUVEC) and fibroblasts modeled by human mesenchymal stem cells (MSCs). The concentration ranges selected for each drug and investigational agent were based upon clinically achievable concentrations if the clinical Cmax of the agent was known.
Compounds. The drugs and investigational agents: novobiocin (NSC847541), ART-558 (NSC835418), RP-6685 (NSC848927), peposertib (NSC802822), ceralasertib (NSC780249), elimusertib (NSC800525), camonsertib (NSC841442), AZD-1390 (NSC803789), olaparib (NSC753686), talazoparib (NSC767125), rucaparib (NSC756644), sotorasib (NSC818433), MRTX-1133 (NSC836407), SN-38 (NSC673596), topotecan (NSC609699), epotoside (NSC141540), doxorubicin (NSC123127), gemcitabine (NSC613327), 5-fluorouracil (NSC19893), paclitaxel (NSC125973), vemurafenib (NSC761431), MSA-2 (NSC828583), SN-011 (NSC837082), adavosertib (NSC754352), prexasertib (NSC758257), carboplatin (NSC241240) and oxaliplatin (NSC266046), were obtained from the National Cancer Institute (NCI) Developmental Therapeutics Program Chemical Repository (21). The FDA-approved anticancer drug set is available from the Developmental Therapeutics Program at https://dtp.cancer.gov/organization/dscb/obtaining/. […] The stock solutions were prepared in dimethyl sulfoxide (DMSO, Sigma-Aldrich, St. Louis, MO, cat. D2650), except for the platinum compounds which were prepared in saline (Quality Biological, Gaithersburg, MD, cat. 114-055-101), at 800-fold the tested concentration and stored at -70 degrees C prior to their use. All drugs and investigational agents were tested over a range starting from a high concentration at or near the clinical Cmax and decreasing in half-log increments. If the clinical Cmax for an agent had not been determined, the highest concentration tested was 10 microM, except for SN-38, which was tested at a high concentration of 1 microM.
Cell Culture. All cells were maintained in an incubator at 37 degrees C and 5% CO2 with 95% humidity. The PDC lines were cultured according to standard operating procedures established by the NCI PDMR (https://pdmr.cancer.gov). Table 3 of the manuscript, lists the cell lines along with the number of the three cell types plated to form the mct-spheroids and media for tumor cell growth. After thawing, all PDC lines, except 997537-175-T-J1-PDC and 415267-285-R-J2-PDC, were cultured in Matrigel-coated flasks prepared with a working solution of 1X Ham's F-12 nutrient mix, without supplementation (Thermo Fisher Scientific, cat. 11765054), 100 U/mL penicillin-streptomycin (Thermo Fisher Scientific, cat. 15140122), and 2.5% Matrigel (Corning Inc., Corning, NY, cat. 354248) for the first three passages. The two PDC lines 997537-175-T-J1-PDC and 415267-285-R-J2-PDC were cultured on uncoated flasks. The 857933-349-R-J2-PDC line was cultured in 6C/Colon 1B media containing advanced DMEM/F-12 (Thermo Fisher Scientific, cat. 12634028), 10 mM HEPES (Thermo Fisher Scientific, cat. 15630080), 1X GlutaMAX supplement (Thermo Fisher Scientific, cat. 35050061), 0.1 mg/mL primocin (InvivoGen, San Diego, CA, cat. ant-pm-2), 10% defined fetal bovine serum, heat inactivated (HyClone Laboratories Inc., Logan, UT, cat. SH30070.03HI), 50% L-WRN conditioned media (ATCC, cat. CRL-3276), 1.25 mM N-Acetyl-L-cysteine (Sigma-Aldrich, cat. A9165), 10 mM nicotinamide (Sigma-Aldrich, cat. N0636), 1X B-27 supplement (Thermo Fisher Scientific, cat. 17504044), 1X N-2 supplement (Thermo Fisher Scientific, cat. […]
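Further: spheroids exposed to drugs for seven days before measurement.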
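Wherever viability, T/C is given: percent viability relative to DMSO vehicle control wells taken as 100%.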

In general, viability, T/C refers to the result in the treated group divided by that in the control group, in per cent. The pIC50 is the negative decadic logarithm of the IC50, by convention in mol/L. In the case of `C#Cc1c(F)ccc2cc(O)cc(-c3ncc4c(N5CC6CCC(C5)N6)nc(OCC56CCCN5CC(F)C6)nc4c3F)c12` (stereo not drawn), the viability, T/C reads like this: (compound 0.0316 µM) 57.4% and 52.2% and 68.6%; (compound 0.1 µM) 44.5% and 37.2% and 52.2%; (compound 0.316 µM) 32.2% and 26% and 35.8%; (compound 1 µM) 28.6% and 24.5% and 29.1%; (compound 3.16 µM) 23.6% and 21.5% and 29.5%; (compound 10 µM) 21.4% and 19.2% and 26.2%. In addition, for the setting “curve of compound”, the pIC50 was 7.23 and 7.43 and 6.93.
`C=CC(=O)N1CCN(c2nc(=O)n(-c3c(C)ccnc3C(C)C)c3nc(-c4c(O)cccc4F)c(F)cc23)C(C)C1` (stereo not drawn): the viability, T/C is 109% (2×) and 106% (compound 0.0316 µM); 97% and 98.6% and 100% (compound 0.1 µM); 105% and 112% and 106% (compound 0.316 µM); 104% and 113% and 107% (compound 1 µM); 108% and 104% and 114% (compound 3.16 µM); 107% and 113% and 112% (compound 10 µM). The pIC50 (curve of compound) is < 5.00.
In the case of `CC(C)n1c(=O)n(C)c2cnc3cc(F)c(-c4ccc(OCCCN5CCCCC5)nc4)cc3c21`, the viability, T/C is, setting by setting: (compound 0.0316 µM) 106% and 110% and 109%; (compound 0.1 µM) 96.6% and 98.5% and 110%; (compound 0.316 µM) 107% and 110% and 113%; (compound 1 µM) 109% and 97.5% and 118%; (compound 3.16 µM) 98% and 97.2% and 102%; (compound 10 µM) 81.2% and 84% and 89.7%. Further, the pIC50 (curve of compound) was < 5.00.
Consider `CC1COCCN1c1cc(C2(O)CC3CCC(C2)O3)c2cnn(-c3ccn[nH]3)c2n1` (stereo not drawn), for which the viability, T/C (compound 0.0316 µM) is 100% and 99.2% and 87.4%; the viability, T/C (compound 0.1 µM) was 71.6% and 69.7% and 51.4%; the viability, T/C (compound 0.316 µM) was 29.2% and 34.4% and 21.1%; the viability, T/C (compound 1 µM) was 24.1% and 25.3% and 11.3%; the viability, T/C (compound 3.16 µM) was 23.8% and 24.9% and 15.1%; the viability, T/C (compound 10 µM) was 14.6% and 14.2% and 9.62%. Also, the pIC50 (curve of compound) is 6.74 and 6.71 and 6.97.
Regarding `CCc1cc2c(N3CCc4c(cc(Cn5ccnc5)cc4-c4cn(C)nc4C(F)(F)F)C3=O)cc(C)nc2c(OC)n1`, the viability, T/C is 110% and 99.6% and 98.9% (compound 0.0316 µM); 92% and 79.7% and 87.1% (compound 0.1 µM); 88.2% and 81.7% and 79.3% (compound 0.316 µM); 89.3% and 74.5% and 69.2% (compound 1 µM); 87% and 76.7% and 72.6% (compound 3.16 µM); 71.6% and 58.8% and 56.6% (compound 10 µM). In addition, the pIC50 (curve of compound) was < 5.00.
As for `CCc1cc2c(N3CCc4c(cc(Cn5ccnc5)cc4-c4cn(C)nc4C(F)(F)F)C3=O)ccnc2c(OC)n1`, the viability, T/C by setting is: (compound 0.0316 µM) 109% and 100% and 101%; (compound 0.1 µM) 95.6% and 93% and 84.3%; (compound 0.316 µM) 98.7% and 82.7% and 86.3%; (compound 1 µM) 87.5% and 83.7% and 77.2%; (compound 3.16 µM) 89.3% and 71.8% and 72.8%; (compound 10 µM) 68% and 70.2% and 53.9%. The pIC50 (curve of compound) was < 5.00.
Take `COc1cc2cc(C(=O)CCC(=O)O)sc2cc1OC`: the viability, T/C (compound 0.0316 µM) was 101% and 105% (2×); the viability, T/C (compound 0.1 µM) is 101% (2×) and 99.3%; the viability, T/C (compound 0.316 µM) was 100% and 105% and 108%; the viability, T/C (compound 1 µM) was 96.9% and 103% and 106%; the viability, T/C (compound 3.16 µM) is 94.2% and 105% and 114%; the viability, T/C (compound 10 µM) was 96.2% and 95.3% and 93.4%. Moreover, the negative logarithm of the IC50 (pIC50) (curve of compound) was < 5.00.
Turning to `O=C(Nc1ccc(O)c(NS(=O)(=O)c2ccc(F)cc2)c1)c1ccc(-c2ccccc2)cc1`, the viability, T/C reads like this: (compound 0.0316 µM) 103% and 108% and 98.8%; (compound 0.1 µM) 104% and 96.5% and 103%; (compound 0.316 µM) 100% and 110% and 106%; (compound 1 µM) 94% and 101% and 106%; (compound 3.16 µM) 96.4% and 116% and 115%; (compound 10 µM) 87.7% and 89.7% and 98%. Moreover, under “curve of compound”, the pIC50 was < 5.00.
As for `CNCc1ccc(-c2[nH]c3cc(F)cc4c3c2CCNC4=O)cc1` + COC1C(OC(N)=O)C(O)C(Oc2ccc3c(O)c(NC(=O)c4ccc(O)c(CC=C(C)C)c4)c(=O)oc3c2C)OC1(C)C, the pIC50 was < 5.00 (curve of first compound, second compound 0.0316 µM); < 5.00 (curve of first compound, second compound 0.1 µM); < 5.00 (curve of first compound, second compound 0.316 µM); < 5.00 (curve of first compound, second compound 1 µM); < 5.00 (curve of first compound, second compound 3.16 µM); < 5.00 (curve of first compound, second compound 10 µM). Also, the viability, T/C by setting is: (second compound 0.0316 µM, first compound 0.0316 µM) 99.4%; (second compound 0.0316 µM, first compound 0.1 µM) 115%; (second compound 0.0316 µM, first compound 0.316 µM) 98.6%; (second compound 0.0316 µM, first compound 1 µM) 106%; (second compound 0.0316 µM, first compound 3.16 µM) 104%; (second compound 0.0316 µM, first compound 10 µM) 92%. In addition, the viability, T/C (second compound 0.1 µM, first compound 0.0316 µM) is 98.2%; the viability, T/C (second compound 0.1 µM, first compound 0.1 µM) is 103%; the viability, T/C (second compound 0.1 µM, first compound 0.316 µM) is 103%; the viability, T/C (second compound 0.1 µM, first compound 1 µM) was 104%; the viability, T/C (second compound 0.1 µM, first compound 3.16 µM) is 106%; the viability, T/C (second compound 0.1 µM, first compound 10 µM) is 89.1%. The viability, T/C (second compound 0.316 µM, first compound 0.0316 µM) is 102%; the viability, T/C (second compound 0.316 µM, first compound 0.1 µM) is 113%; the viability, T/C (second compound 0.316 µM, first compound 0.316 µM) is 100%; the viability, T/C (second compound 0.316 µM, first compound 1 µM) is 105%; the viability, T/C (second compound 0.316 µM, first compound 3.16 µM) is 95.8%; the viability, T/C (second compound 0.316 µM, first compound 10 µM) is 87.8%. The viability, T/C (second compound 1 µM, first compound 0.0316 µM) was 106%; the viability, T/C (second compound 1 µM, first compound 0.1 µM) is 99%; the viability, T/C (second compound 1 µM, first compound 0.316 µM) is 101%; the viability, T/C (second compound 1 µM, first compound 1 µM) is 98.7%; the viability, T/C (second compound 1 µM, first compound 3.16 µM) was 97.8%; the viability, T/C (second compound 1 µM, first compound 10 µM) was 88%. The viability, T/C was 112% (second compound 3.16 µM, first compound 0.0316 µM); 104% (second compound 3.16 µM, first compound 0.1 µM); 101% (second compound 3.16 µM, first compound 0.316 µM); 98.8% (second compound 3.16 µM, first compound 1 µM); 99.3% (second compound 3.16 µM, first compound 3.16 µM); 87.5% (second compound 3.16 µM, first compound 10 µM). The viability, T/C is, setting by setting: (second compound 10 µM, first compound 0.0316 µM) 103%; (second compound 10 µM, first compound 0.1 µM) 97.3%; (second compound 10 µM, first compound 0.316 µM) 92.8%; (second compound 10 µM, first compound 1 µM) 98.3%; (second compound 10 µM, first compound 3.16 µM) 92%; (second compound 10 µM, first compound 10 µM) 85.1%.
